# Assay results as given in the Kinase Knowledgebase extract (Sharma et al. 2016).
# Target: PIK3CG (human) (UniProt P48736)
# Experiment: Inhibition of PIK3CG Kinase Activity
# Sequence of PIK3CG (human) (P48736 whole entry, looked up): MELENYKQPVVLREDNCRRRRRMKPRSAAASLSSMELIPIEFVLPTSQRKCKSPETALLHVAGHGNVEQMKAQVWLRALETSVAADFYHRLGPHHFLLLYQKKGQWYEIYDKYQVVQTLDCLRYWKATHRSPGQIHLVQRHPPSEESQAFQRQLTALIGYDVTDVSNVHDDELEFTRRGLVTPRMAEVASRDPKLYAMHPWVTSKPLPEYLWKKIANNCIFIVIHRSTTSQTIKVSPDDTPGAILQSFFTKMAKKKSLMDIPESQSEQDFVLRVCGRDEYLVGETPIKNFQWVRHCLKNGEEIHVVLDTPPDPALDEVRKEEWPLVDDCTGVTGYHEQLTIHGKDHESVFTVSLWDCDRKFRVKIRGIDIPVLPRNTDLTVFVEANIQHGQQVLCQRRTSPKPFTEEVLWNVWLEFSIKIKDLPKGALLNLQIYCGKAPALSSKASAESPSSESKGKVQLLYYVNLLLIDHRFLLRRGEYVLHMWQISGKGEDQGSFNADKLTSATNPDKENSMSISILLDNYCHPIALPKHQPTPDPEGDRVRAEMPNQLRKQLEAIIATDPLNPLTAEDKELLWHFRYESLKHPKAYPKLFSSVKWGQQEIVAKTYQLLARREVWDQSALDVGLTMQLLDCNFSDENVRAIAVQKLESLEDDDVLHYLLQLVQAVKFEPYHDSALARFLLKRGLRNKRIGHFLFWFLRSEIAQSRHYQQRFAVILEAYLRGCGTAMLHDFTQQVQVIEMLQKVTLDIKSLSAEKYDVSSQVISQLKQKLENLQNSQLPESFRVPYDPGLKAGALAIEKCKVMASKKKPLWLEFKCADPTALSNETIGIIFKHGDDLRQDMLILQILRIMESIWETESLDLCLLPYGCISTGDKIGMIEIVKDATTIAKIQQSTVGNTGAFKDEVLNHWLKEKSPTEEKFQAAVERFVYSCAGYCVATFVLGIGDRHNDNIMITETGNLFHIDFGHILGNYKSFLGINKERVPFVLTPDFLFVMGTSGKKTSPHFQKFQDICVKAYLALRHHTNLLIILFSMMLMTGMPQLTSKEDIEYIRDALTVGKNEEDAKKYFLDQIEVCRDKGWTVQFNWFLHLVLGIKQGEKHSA
row,Compound,Ki [nM]
1,COc1cncc(-c2cc(C)c3c(n2)C(C)(C)N(c2cnn(C4CC4)c2)C3=O)c1,100 to 490
2,COc1cc(-c2ccc3c(n2)CN(c2cnn(C(CO)C(F)(F)F)c2)C3=O)cnc1OC (configuration not stated),< 100
3,COc1cc(-c2cc(C)c3c(n2)C(C)(C)N(c2cnn(CC(F)(F)F)c2)C3=O)cnc1OC,< 100
4,COc1ncc(-c2ccc3c(n2)CN(c2ccn(C)n2)C3=O)cc1OC(F)F,< 100
5,COc1ncc(-c2cc(C)c3c(n2)C(C)N(c2cnn(CC(F)F)c2)C3=O)cc1C(=O)O (configuration not stated),< 100
6,COc1cc(-c2cc(C)c3c(n2)CN(c2ccc(C(F)(F)F)nc2)C3=O)cnc1OC,< 100
7,CSc1cncc(-c2cc(C)c3c(n2)CN(c2cnn(CC(F)(F)F)c2)C3=O)c1,< 100
8,COc1ccc(-c2cc(C)c3c(n2)CN(c2cnn(CC#N)c2)C3=O)cc1OC,< 100
9,Cc1cc(-c2cnc(C)c(O)c2)nc2c1C(=O)N(c1cnn(CC(F)(F)F)c1)C2,< 100
10,COc1cncc(-c2cc(C)c3c(n2)C(C)N(c2cc[nH]n2)C3=O)c1 (configuration not stated),< 100
11,COc1cc(-c2ccc3c(n2)CN(c2cnn(CCn4ccc(C)n4)c2)C3=O)cnc1OC,100 to 490
12,CCOc1cncc(-c2cc(C)c3c(n2)C(C)N(c2cnn(CC(F)(F)F)c2)C3=O)c1 (configuration not stated),< 100
13,COc1cc(-c2ccc3c(n2)C(C)N(c2cn[nH]c2)C3=O)cnc1OC (configuration not stated),< 100
14,CCCOc1cc(-c2cc(C)c3c(n2)CN(c2ccn(CC)n2)C3=O)cnc1OC,< 100
15,COc1cc(-c2ccc3c(n2)[C@@H](C)N(c2cnn(CC(C)(C)O)c2)C3=O)cnc1OC,< 100
16,COc1ncc(-c2cc(C)c3c(n2)C(C)(C)N(c2cnn(CC(F)(F)F)c2)C3=O)cc1C(=O)NCC(C)O (configuration not stated),< 100
17,CCN(CC)CCn1cc(N2Cc3nc(-c4cnc(OC)c(OC)c4)ccc3C2=O)cn1,100 to 490
18,COc1cc(-c2cc(C)c3c(n2)CN(c2ccnc(C4(C#N)CC4)c2)C3=O)cnc1OC,< 100
19,CCOC(=O)c1cncc(N2Cc3nc(-c4cnc(OC)c(OC)c4)ccc3C2=O)c1,100 to 490
20,COc1ncc(-c2cc(C)c3c(n2)C(C)N(c2cnn(CC(F)F)c2)C3=O)cc1C(=O)NCC(F)F (configuration not stated),< 100
21,COc1ncc(-c2cc(C)c3c(n2)C(C)N(c2cnn(CC(F)(F)F)c2)C3=O)cc1C(=O)NC(C)C (configuration not stated),< 100
22,Cc1cc(-c2cccnc2NC(=O)C(C)(C)C)nc2c1C(=O)N(c1cnn(CC(F)(F)F)c1)C2,< 100
23,COc1cc(-c2ccc3c(n2)CN(c2cnn([C@H](C)C#N)c2)C3=O)cnc1OC,< 100
24,COc1cc(-c2ccc3c(n2)CN(c2ccc(N(C)CC(OC)OC)nc2)C3=O)cnc1OC,100 to 490
25,COc1cc(-c2ccc3c(n2)CN(c2ccc(OCC#N)nc2)C3=O)cnc1OC,100 to 490

row,Compound,Ki [nM]
1,COc1cc(-c2cc(C)c3c(n2)[C@](C)(OC)N(c2cnn(CC(F)(F)F)c2)C3=O)cnc1OC,< 100
2,COc1cc(-c2ccc3c(c2)CN(c2cn(C)nn2)C3=O)cnc1OC,< 100
3,CCc1cc(N2Cc3nc(-c4cnc(OC)c(OC)c4)ccc3C2=O)nn1C,< 100
4,COc1cc(-c2cc(C)c3c(n2)CN(c2cncc(CC#N)c2)C3=O)cnc1OC,< 100
5,Cc1cc(-c2cncc(OC(F)F)c2)nc2c1C(=O)N(c1cnn(CC(F)(F)F)c1)C2(C)O (configuration not stated),< 100
6,COc1cc(-c2cc(C)c3c(n2)CN(c2cc(C)n(CCC4OCCCO4)n2)C3=O)cnc1OC,< 100
7,COc1cc(-c2cc(C)c3c(n2)C(O)N(c2nc(C)cs2)C3=O)cnc1OC (configuration not stated),< 100
8,COc1cc(-c2cc(C)c3c(n2)CN(c2cnn(CC(F)(F)F)c2)C3=O)cnc1OC,< 100
9,COc1cc(-c2ccc3c(n2)CN(c2cnn(C(C)(C)C#N)c2)C3=O)cnc1OC(F)F,< 100
10,COc1cc(-c2ccc3c(n2)CN(c2cnn(CC(O)C(F)(F)F)c2)C3=O)cnc1OC (configuration not stated),< 100
11,CCOc1cncc(-c2cc(C)c3c(n2)[C@@]2(CCOC2)N(c2cnn(CC(F)(F)F)c2)C3=O)c1,< 100
12,COc1ncc(-c2cc(C)c3c(n2)CN(c2cn[nH]c2)C3=O)cc1OCC(F)F,< 100
13,CCOC1c2nc(-c3cnc(OC)c(OC)c3)ccc2C(=O)N1c1cnn(CC(F)(F)F)c1 (configuration not stated),< 100
14,CC(C)(C#N)n1cc(N2Cc3nc(-c4cncc(OC(F)F)c4)ccc3C2=O)cn1,100 to 490
15,COc1cc(-c2ccc3c(n2)[C@@H](C)N(c2ccn(CC(C)(C)O)n2)C3=O)cnc1OC,< 100
16,Cc1cc(-c2cnc3ccccc3c2)nc2c1C(=O)N(c1cn[nH]c1)C2,100 to 490
17,CNC(=O)c1cncc(-c2cc(C)c3c(n2)CN(c2cnn(CC(F)(F)F)c2)C3=O)c1,< 100
18,Cc1cc(-c2cncc(OCC(F)F)c2)nc2c1C(=O)N(c1cnn(CC(F)(F)F)c1)[C@H]2C,< 100
19,COc1cc(-c2ccc3c(n2)CN(c2ccc(N4CCC(C#N)CC4)nc2)C3=O)cnc1OC,< 100
20,COc1cc(-c2ccc3c(c2)CN(c2cncc(CC#N)c2)C3=O)cnc1OC,< 100
21,Cc1cc(-c2cncc(CO)c2)cc2c1C(=O)N(c1cnn(CC(F)(F)F)c1)C2C (configuration not stated),< 100
22,COc1cc(-c2cc(C)c3c(n2)CN(c2cnn(CC(F)(F)F)c2)C3=O)cnc1O,< 100
23,COc1cc(-c2ccc3c(n2)[C@@H](OC)N(c2cnn(CC(F)(F)F)c2)C3=O)cnc1OC,< 100
24,Cc1cc(-c2cncc(NC(=O)C(C)C)c2)nc2c1C(=O)N(c1cnn(CC(F)(F)F)c1)C2(C)C,100 to 490
25,Cc1cc(-c2cncc(OCC(F)(F)F)c2)nc2c1C(=O)N(c1cn(CC(F)(F)F)cn1)C2,< 100

row,Compound,Ki [nM]
1,CCn1cc(N2Cc3cc(-c4cnc(OC)nc4OC)ccc3C2=O)cn1,100 to 490
2,CO[C@H]1c2nc(-c3cncc(OCC(F)F)c3)cc(C)c2C(=O)N1c1cnn(CC(F)(F)F)c1,< 100
3,Cc1cc(-c2cncc(OC(F)F)c2)nc2c1C(=O)N(c1cn[nH]c1)[C@H]2C,< 100
4,Cc1cc(-c2cncc(S(=O)(=O)NC(C)C)c2)nc2c1C(=O)N(c1cnn(CC(F)(F)F)c1)C2(C)C,< 100
5,COc1cc(-c2ccc3c(c2)CN(c2csc(C)c2)C3=O)cnc1OC,100 to 490
6,COc1cc(N2Cc3nc(-c4cnc(OC)c(OC)c4)cc(C)c3C2=O)cnc1CO,< 100
7,COc1cc(-c2cc(C)c3c(n2)CN(c2cnn(CC(F)(F)F)c2)C3=O)ccc1F,< 100
8,COc1cc(-c2ccc3c(n2)CN(c2ccc(N(C)CCC4OCCO4)nc2)C3=O)cnc1OC,100 to 490
9,CCn1cc(N2C(=O)c3ccc(-c4cnc(OC)c(OC)c4)nc3[C@@H]2C)cn1,< 100
10,CCC1c2nc(-c3cncc(OC(F)F)c3)cc(C)c2C(=O)N1c1cnn(CC(F)(F)F)c1 (configuration not stated),< 100
11,COc1cc(-c2ccc3c(n2)CN(c2cncc(CO)c2)C3=O)cnc1OC,< 100
12,COc1cc(-c2cc(C)c3c(n2)[C@H](OC)N(c2cnn(CC(F)(F)F)c2)C3=O)cnc1OC,< 100
13,CCn1cc(N2Cc3nc(-c4cnc(OC)c(OC)c4)cc(C)c3C2=O)nn1,< 100
14,COc1cc(-c2cc(C)c3c(n2)CN(c2cn[nH]c2)C3=O)cnc1OC,< 100
15,COc1cc(-c2ccc3c(n2)CN(c2cnn(C)c2)C3=O)cnc1OC,< 100
16,COc1cc(-c2cc(C)c3c(n2)CN(c2cncc(OCCO)c2)C3=O)cnc1OC,< 100
17,CCc1cc(-c2cnc(OC)c(OC)c2)nc2c1C(=O)N(c1cn[nH]c1)C2(C)C,< 100
18,COc1cc(-c2cc(N(C)C)c3c(n2)CN(c2cnn(CC#N)c2)C3=O)cnc1OC,< 100
19,CCn1cc(N2C(=O)c3ccc(-c4cnc(OC)c(OC(F)F)c4)nc3[C@@H]2C)cn1,< 100
20,CCOc1ncc(-c2cc(C)c3c(n2)C(O)N(c2cnn(CC(F)(F)F)c2)C3=O)cc1OC (configuration not stated),< 100
21,Cc1cc(-c2cnc(F)c(O)c2)nc2c1C(=O)N(c1cnn(CC(F)(F)F)c1)C2(C)C,< 100
22,CCOc1ncc(-c2cc(C)c3c(n2)[C@@]2(CCCO2)N(c2ccn(CC)n2)C3=O)cc1OC,100 to 490
23,CCOc1ncc(-c2cc(C)c3c(n2)CN(c2cnn(CC)c2)C3=O)cc1OC,< 100
24,Cc1cc(-c2cncc(C(=O)NC(C)C)c2)nc2c1C(=O)N(c1cnn(CC(F)(F)F)c1)C2C (configuration not stated),< 100
25,COc1ncc(-c2ccc3c(n2)CN(c2cnn(CC#N)c2)C3=O)c(OC)n1,100 to 490

row,Compound,Ki [nM]
1,COc1cc(-c2cc(C)c3c(n2)C(O)(OC)N(c2cnn(CC(F)(F)F)c2)C3=O)cnc1OC (configuration not stated),< 100
2,COc1cc(-c2cc3c(c(C)n2)C(=O)N(c2cnn(CC(F)(F)F)c2)C3)cnc1OC,< 100
3,COc1cc(-c2ccc3c(n2)CN(c2cnn(CCn4cccn4)c2)C3=O)cnc1OC,100 to 490
4,CCOc1ncc(-c2ccc3c(c2)CN(c2cnn(CC#N)c2)C3=O)cc1OC,< 100
5,CCOc1cncc(N2Cc3nc(-c4cnc(OC)c(OC)c4)cc(C)c3C2=O)c1,< 100
6,CCNC(=O)c1cc(-c2cc(C)c3c(n2)C(C)(C)N(c2cnn(CC(F)F)c2)C3=O)cnc1OC,< 100
7,CCc1cc(N2Cc3nc(-c4cnc(OC)c(OC)c4)cc(C)c3C2=O)nn1C,< 100
8,COc1cncc(-c2cc(C)c3c(n2)C(C)N(c2csc(C)n2)C3=O)c1 (configuration not stated),< 100
9,COc1cc(-c2ccc3c(n2)CN(c2ccnc(OCC(F)F)c2)C3=O)cnc1OC,100 to 490
10,COc1cc(-c2cc(C)c3c(n2)CN(c2cncs2)C3=O)cnc1OC,< 100
11,COc1cc(-c2cc(C)c3c(n2)C(OCC(F)(F)F)N(c2cnn(CC(F)(F)F)c2)C3=O)cnc1OC (configuration not stated),< 100
12,COc1ncc(-c2cc(C)c3c(n2)C(C)(C)N(c2cnn(CC(F)(F)F)c2)C3=O)cc1C(=O)NC(C)CO (configuration not stated),< 100
13,COc1cc(-c2cc(C)c3c(n2)CN(c2ccnc(OC(F)F)c2)C3=O)cnc1OC,< 100
14,CCn1ccc(N2Cc3nc(-c4cnc(OC)c(OC(C)C)c4)cc(C)c3C2=O)n1,< 100
15,COc1cc(-c2ccc3c(c2)CN(c2nncs2)C3=O)cnc1OC,100 to 490
16,COc1cc(-c2ccc3c(n2)CN(c2cnn(CCO)c2)C3=O)cnc1OC,< 100
17,COc1cc(-c2cc(C)c3c(n2)CN(c2ccn(C(F)F)c(=O)c2)C3=O)cnc1OC,< 100
18,COc1cc(-c2ccc3c(n2)CN(c2ccn(CC#N)n2)C3=O)cnc1OC,< 100
19,COc1cc(-c2cc(Cl)c3c(n2)CN(c2cnn(CC#N)c2)C3=O)cnc1OC,< 100
20,Cc1cc(-c2cncc(OCC(F)(F)F)c2)nc2c1C(=O)N(c1cnn(CC(F)(F)F)c1)C2,< 100
21,Cc1cc(-c2cncc(OCC(F)(F)F)c2)cc2c1C(=O)N(c1cnn(CC(F)(F)F)c1)C2C (configuration not stated),< 100
22,CCn1cc(N2Cc3nc(-c4cccc(OC)c4)cc(C)c3C2=O)cn1,< 100
